SMILES strings stand for the structures.

The nature of test [1]: Radiation-induced oxidation of liposomes (MDA/TBA read-out). The test is classed as biochemical, hen. The conditions noted are these: for Radioprotection in %: 500 Gy Co60 γ-quanta, 84.8 Gy/min, liposomes 2 mg/ml phospholipids in saline solution. An excerpt:
(§1) The biologic membranes play the most important role in cell vital activity. The high sensibility of lipids and phospholipids, which are the main structural components of biomembranes, as to oxidative stress, including those caused by irradiation, is the consequence of the high content of unsaturated fatty acids. The liposomes being obtained from phospholipids of hen's egg yolk were used as a model of the biomembranes. The phospholipids are able to form liposome emulsions in water; this allows studying in model experiments the radioprotective and antioxidant properties of various water-soluble and water-insoluble compounds, including water-insoluble phytoene as well. To obtain the liposomes, 20 mg of the phospholipids, being dissolved in chloroform, were entered into a conical vial and dried in vacuum. Then 2 ml of a saline solution containing 0.15 M NaCl, 0.005 M KCl, 0.0012 M KH2PO4, 0.0012 M Na2HPO4 at pH 7.4 was added to the dried sample. The mixture has been shaken, input into an ultrasonic bath for 30 seconds, and then the total volume was increased up to 10 ml, stirred, treated with ultrasound, and as the result the liposome suspension with the phospholipid concentration of 2 mg/ml was received. […] Optical density of the colored TBA products was calculated by the optical density data, considering the molar extinction coefficient at 532 nm equals to 156,000 mol^-1·cm^-1. […] Taking as 100% the level of the MDA increment at the induced liposome oxidation above spontaneous phospholipids oxidation in the absence of phytoene, and taking into account the fact that the presence of phytoene in the liposomes can modify the level of the spontaneous oxidation, the protection efficacy (PE)OK in the […] of the induced liposome oxidation was calculated by the formula: (PE)OK=(CPOK-CPK)·100/(COK-CK), in which CPK , CPOK are the MDA concentrations in the liposomes with phytoene before and after the liposome induced oxidation respectively; CK, COK (are the MDA concentrations in the control liposomes (without phytoene) before and after the liposome induced oxidation respectively.

Test [2] in a line: Fe++-induced oxidation of liposomes (MDA/TBA read-out). It counts as biochemical, hen. The conditions noted are these: for Protection against Fe++-induced oxidation in %: 50 μM Fe++, 30 minutes, room temperature.
Text: as §1

As to `CC(C)=CCC/C(C)=C/CC/C(C)=C/CC/C(C)=C/C=C/C=C(\C)CC/C=C(\C)CC/C=C(\C)CCC=C(C)C` (stereo in doubt) [phytoene], the results for the Radioprotection in % in test [1] (phytoene:phospholipid 1:10) and in test [1] (phytoene:phospholipid 1:100) were 62.0 ± 10.4% and 37.2 ± 5.2%, respectively. For the same compound, in test [1] (summary statement), the “Protection of liposomes against oxidative stress induced by the radiation (in words)” value is given as “protects the liposomes against the oxidative stress”. The “Protection against Fe++-induced oxidation in %” value is recorded as 50.9 ± 6.6% in test [2] (phytoene:phospholipid 1:10) and 18.7 ± 11.5% in test [2] (phytoene:phospholipid 1:100). Further, in test [2] (summary statement), the “Protection of liposomes against oxidative stress induced with ferrous iron ions (in words)” value was “protects the liposomes against the oxidative stress”.

Source of the values: US20150328269A1, “PREPARATION FOR RADIO PROTECTION” (LYCORED LTD., priority 2012, published 2015).
